As usually defined, the IC50 is the concentration needed to halve the response being measured.

The source of these data is ChEMBL document CHEMBL4000225, “A matrix-focused structure-activity and binding site flexibility study of quinolinol inhibitors of botulinum neurotoxin serotype A” (Bioorg Med Chem Lett, 2017).

Assay [1] deals with Botulinum neurotoxin type A (Clostridium botulinum, UniProt P0DPI0). Kind of assay: Inhibition of protease activity of recombinant full length Clostridium botulinum Hall BoNT/A light chain using SNAP-25 peptide (187 to 203 residues) as substrate after 5 mins by HPLC analysis. Also on record: species or system Clostridium botulinum A str. Hall.
Assay [2] has as its target Botulinum neurotoxin type A (Clostridium botulinum) (UniProt P0DPI0). Kind of assay: Inhibition of Clostridium botulinum Hall BoNT/A light chain-induced paralysis in CD1 mouse phrenic nerve diaphragm assessed as compound concentration required to cause delay in time to 50% loss of twitch tension evoked by nerve stimulation preincubated with BoNT/A light chain for 15 to 20 mins followed by addition to diaphragm. The note with it: Clostridium botulinum A str. Hall.

For assay [3] the target is unchanged. Kind of assay: Inhibition of Clostridium botulinum Hall BoNT/A light chain-induced paralysis in CD1 mouse phrenic nerve diaphragm assessed as compound concentration required to cause delay in time to 50% loss of twitch tension evoked by nerve stimulation at 20 uM preincubated with BoNT/A light chain for 15 to 20 mins followed by addition to diaphragm. The note with it: Clostridium botulinum A str. Hall.

Calls of active or inactive are those of the source. The rule behind the calls is not given here.

Botulinum neurotoxin type A (Clostridium botulinum), sequence (P0DPI0 2-448 limits assumed): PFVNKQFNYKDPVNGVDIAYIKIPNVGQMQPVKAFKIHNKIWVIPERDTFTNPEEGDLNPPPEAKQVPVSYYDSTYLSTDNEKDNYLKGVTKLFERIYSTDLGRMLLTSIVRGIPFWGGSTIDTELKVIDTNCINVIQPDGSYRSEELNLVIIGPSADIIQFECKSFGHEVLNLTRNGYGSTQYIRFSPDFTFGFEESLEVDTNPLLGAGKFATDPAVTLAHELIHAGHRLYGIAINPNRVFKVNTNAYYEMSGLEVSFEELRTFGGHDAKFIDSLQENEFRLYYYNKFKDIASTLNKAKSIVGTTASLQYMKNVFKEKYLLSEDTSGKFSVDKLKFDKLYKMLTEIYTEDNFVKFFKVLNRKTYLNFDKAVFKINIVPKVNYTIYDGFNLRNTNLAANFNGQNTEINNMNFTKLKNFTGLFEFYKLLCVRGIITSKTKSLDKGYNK
Botulinum neurotoxin type A, sequence (P0DPI0 2-448 limits assumed): as above

Consider `Oc1cccc2cccnc12` [OXYQUINOLINE], for which the IC50 in assay [1] was determined as 3900 nM.
Take `Cc1ccc2ccc(C(Nc3ccccn3)c3ccc(F)cc3)c(O)c2n1` (stereo not drawn): in assay [1], the IC50 came out at 1600 nM. Besides, in assay [2], the Activity amounted to 20 µM.
Regarding `Oc1c(C(Nc2cccnc2)c2ccccc2F)ccc2cccnc12` (stereo not drawn), the Activity in assay [2] is 10 µM.
As for `Cc1ccc2ccc(C(Nc3cccnc3)c3ccccc3F)c(O)c2n1` (stereo not drawn), in assay [1], the IC50 came out at 700 nM. Moreover, the Activity in assay [2] stood at 20 µM.
With `Oc1c(C(Nc2ccccn2)c2ccc(F)cc2F)cc(Cl)c2cccnc12` (stereo not drawn), in assay [1], the IC50 is 700 nM. For the same compound, the Activity in assay [2] worked out at 20 µM.
For `Oc1c(C(Nc2ccccn2)c2ccc(F)cc2)cc(Cl)c2cccnc12` (stereo not drawn), the IC50 in assay [1] stood at 600 nM. Besides, the Activity in assay [2] amounted to 20 µM.
On to `Cc1ccc2ccc(C(Nc3ncccn3)c3ccc(F)cc3F)c(O)c2n1` (stereo not drawn), for which, in assay [3], the inhibition entry was “inactive”. In assay [1], the IC50 is 4300 nM.
As for `Oc1c(C(Nc2ccccn2)c2ccccc2)ccc2cccnc12` (stereo not drawn), the Activity in assay [2] was 10 µM.
On to `Oc1c(C(Nc2ccccn2)c2ccc(F)cc2)ccc2cccnc12` (stereo not drawn), for which the IC50 in assay [1] worked out at 4100 nM. The Activity in assay [2] is 2 µM.
On to `O=Cc1ccccc1` [BENZALDEHYDE], for which the IC50 in assay [1] worked out at 2900 nM.
On to `Cc1ccc2ccc(C(Nc3cccnc3)c3ccc(F)cc3F)c(O)c2n1` (stereo not drawn), for which, in assay [1], the IC50 came to 12300 nM. The Activity in assay [2] turned out to be 2 µM.
For `Oc1c(C(Nc2cccnc2)c2ccc(F)cc2)cc(Cl)c2cccnc12` (stereo not drawn), the half-maximal inhibitory concentration (IC50) in assay [1] amounted to 2300 nM. In assay [2], the Activity is 2 µM.
In the same order, the values of `Oc1c(C(Nc2cccnc2)c2ccccc2F)cc(Cl)c2cccnc12` (stereo not drawn) are 700 nM and 2 µM.
Consider `Oc1c(C(Nc2ncccn2)c2ccccc2F)cc(Cl)c2cccnc12` (stereo not drawn), for which, in assay [1], the IC50 was found to be 4000 nM. Besides, the Activity in assay [2] was 2 µM.
With `Oc1ccc(Cl)c2cccnc12` [CLOXYQUIN], the IC50 in assay [1] worked out at 1900 nM.
Consider `Cc1ccc2cccc(O)c2n1` [8-HYDROXY QUINALDINE], for which the half-inhibitory concentration (IC50) in assay [1] worked out at 3900 nM.
With `Oc1c(C(Nc2cccnc2)c2ccccc2)ccc2cccnc12` (stereo not drawn), in assay [1], the IC50 amounted to 6200 nM. Besides, the Activity in assay [2] stood at 20 µM.
Turning to `Oc1c(C(Nc2ccccn2)c2ccc(F)cc2F)ccc2cccnc12` (stereo not drawn), the concentration for half-maximal inhibition (IC50) in assay [1] amounted to 3600 nM. Also, in assay [2], the Activity was found to be 20 µM.
Turning to `Cc1ccc2ccc(C(Nc3ccccn3)c3ccc(F)cc3F)c(O)c2n1` (stereo not drawn), in assay [1], the IC50 is 2700 nM. Also, the Activity in assay [2] was 20 µM.
Regarding `Oc1c(C(Nc2ccccn2)c2ccccc2)cc(Cl)c2cccnc12` (stereo not drawn), the IC50 in assay [1] stood at 1500 nM. For the same compound, the Activity in assay [2] came to 2 µM.
Taken in the same sequence, the figures for `Oc1c(C(Nc2cccnc2)c2ccc(F)cc2F)ccc2cccnc12` (stereo not drawn) were 4400 nM and 20 µM.
`O=Cc1ccccc1F`: the IC50 in assay [1] worked out at 2800 nM.
As to `Cc1ccc2ccc(C(Nc3ncccn3)c3ccc(F)cc3)c(O)c2n1` (stereo not drawn), in assay [1], the IC50 came to 4200 nM. For the same compound, the Activity in assay [2] stood at 20 µM.
Take `Oc1c(C(Nc2ncccn2)c2ccccc2F)ccc2cccnc12` (stereo not drawn): the inhibition entry in assay [3] is “inactive”. Also, in assay [1], the concentration for half-maximal inhibition (IC50) was 1900 nM.
`Oc1c(C(Nc2cccnc2)c2ccccc2)cc(Cl)c2cccnc12` (stereo not drawn): the IC50 in assay [1] came to 3500 nM. Also, the Activity in assay [2] stood at 2 µM.
As to `Oc1c(C(Nc2cccnc2)c2ccc(F)cc2)ccc2cccnc12` (stereo not drawn), in assay [1], the IC50 stood at 4600 nM. Also, the Activity in assay [2] was found to be 2 µM.
For the compound `Nc1ccccn1` [2-AMINOPYRIDINE], in assay [1], the concentration for half-maximal inhibition (IC50) was found to be 1800 nM.
Turning to `Oc1c(C(Nc2ccccn2)c2ccccc2F)ccc2cccnc12` (stereo not drawn), the half-inhibitory concentration (IC50) in assay [1] is 1200 nM. The Activity in assay [2] was found to be 20 µM.
On to `Cc1ccc2ccc(C(Nc3ncccn3)c3ccccc3)c(O)c2n1` (stereo not drawn), for which the inhibition result in assay [3] is “inactive”. In addition, the IC50 in assay [1] was found to be 4600 nM.
`O=Cc1ccc(F)cc1`: in assay [1], the 50% inhibitory concentration (IC50) stood at 2300 nM.
As to `O=Cc1ccc(F)cc1F`, the half-inhibitory concentration (IC50) in assay [1] is 4900 nM.
Take `Oc1c(C(Nc2ncccn2)c2ccccc2)ccc2cccnc12` (stereo not drawn): the inhibition result in assay [3] was “inactive”. Also, the IC50 in assay [1] was 2700 nM.
In the same order, the values of `Cc1ccc2ccc(C(Nc3ncccn3)c3ccccc3F)c(O)c2n1` (stereo not drawn) are “inactive” and 12000 nM.
As for `Nc1cccnc1`, in assay [1], the IC50 came to 3300 nM.
Consider `Oc1c(C(Nc2ncccn2)c2ccc(F)cc2)cc(Cl)c2cccnc12` (stereo not drawn), for which the concentration for half-maximal inhibition (IC50) in assay [1] is 700 nM. In assay [2], the Activity turned out to be 20 µM.
`Oc1c(C(Nc2ncccn2)c2ccc(F)cc2)ccc2cccnc12` (stereo not drawn): the IC50 in assay [1] turned out to be 1700 nM. Further, in assay [2], the Activity was found to be 20 µM.
Consider `Oc1c(C(Nc2cccnc2)c2ccc(F)cc2F)cc(Cl)c2cccnc12` (stereo not drawn), for which the IC50 in assay [1] amounted to 600 nM. Besides, the Activity in assay [2] stood at 20 µM.
`Nc1ncccn1`: the 50% inhibitory concentration (IC50) in assay [1] came to 4600 nM.
`Cc1ccc2ccc(C(Nc3ccccn3)c3ccccc3F)c(O)c2n1` (stereo not drawn): the IC50 in assay [1] was 1400 nM. Further, the Activity in assay [2] amounted to 2 µM.
In the case of `Oc1c(C(Nc2ncccn2)c2ccc(F)cc2F)cc(Cl)c2cccnc12` (stereo not drawn), the inhibition entry in assay [3] was “inactive”. The half-maximal inhibitory concentration (IC50) in assay [1] was 2200 nM.
On to `Oc1c(C(Nc2ncccn2)c2ccc(F)cc2F)ccc2cccnc12` (stereo not drawn), for which the inhibition result in assay [3] was “inactive”. For the same compound, the half-maximal inhibitory concentration (IC50) in assay [1] is 12700 nM.
`Cc1ccc2ccc(C(Nc3cccnc3)c3ccccc3)c(O)c2n1` (stereo not drawn): in assay [2], the Activity was determined as 20 µM.
Still for that read-out and setting: the value for `Cc1ccc2ccc(C(Nc3cccnc3)c3ccc(F)cc3)c(O)c2n1` (stereo not drawn) was 20 µM.
`Cc1ccc2ccc(C(Nc3ccccn3)c3ccccc3)c(O)c2n1` (stereo not drawn): in assay [1], the IC50 is 700 nM. In assay [2], the Activity is 2 µM.
On to `Oc1c(C(Nc2ccccn2)c2ccccc2F)cc(Cl)c2cccnc12` (stereo not drawn), for which the half-inhibitory concentration (IC50) in assay [1] was 1400 nM. The Activity in assay [2] is 20 µM.
As to `Oc1c(C(Nc2ncccn2)c2ccccc2)cc(Cl)c2cccnc12` (stereo not drawn), the IC50 in assay [1] came out at 4500 nM. In assay [2], the Activity came out at 2 µM.
